From the supplement of paper PMC4862054

test system: MFM-223; assay: normalised response (% of control), CellTiter-Glo; higher = more viable cells (100 = DMSO, 0 = benzethonium chloride kill control); settings: incubation time: 72 h
Protocol: (§1)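 DSRT, 72 h incubation, CellTox Green / CellTiter-Glo readout. Signal is normalised to DMSO and benzethonium chloride controls. Value is the normalised response at the highest dose.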

| SMILES | normalised response |
| --- | --- |
| CCC(C)(C)C(=O)O[C@H]1C[C@@H](C)C=C2C=C[C@H](C)[C@H](CC[C@@H]3C[C@@H](O)CC(=O)O3)[C@H]21 [Simvastatin] (10000 nM) | 97.9% |
| CC(C)Cn1cnc2c(N)nc3ccccc3c21 [Imiquimod] (2500 nM) | 103% |
| N#CCNC(=O)c1ccc(-c2ccnc(Nc3ccc(N4CCOCC4)cc3)n2)cc1 [Momelotinib] (10000 nM) | 67.2% |
| CC(=O)Nc1ccc(C(=O)Nc2ccccc2N)cc1 [Tacedinaline] (1000 nM) | 99.7% |
| O=C(O)c1ccc(-c2c[nH]c3ncc(-c4ccccc4)cc23)cc1C1CCCC1 (10000 nM) | 95% |
| COc1cc2ncnc(Nc3ccc(F)c(Cl)c3)c2cc1NC(=O)/C=C/CN1CCCCC1 [Dacomitinib] (1000 nM) | 93.1% |

test system: Hs578T; assay: as above; settings: incubation time: 72 h
Protocol: as §1

| SMILES | normalised response |
| --- | --- |
| CS(=O)(=O)c1ccc(C2=C(c3ccccc3)C(=O)OC2)cc1 [Rofecoxib] (10000 nM) | 110% |
| CCC(C)(C)C(=O)O[C@H]1C[C@@H](C)C=C2C=C[C@H](C)[C@H](CC[C@@H]3C[C@@H](O)CC(=O)O3)[C@H]21 [Simvastatin] (10000 nM) | 91.2% |
| CC(C)Cn1cnc2c(N)nc3ccccc3c21 [Imiquimod] (2500 nM) | 105% |
| N#CCNC(=O)c1ccc(-c2ccnc(Nc3ccc(N4CCOCC4)cc3)n2)cc1 [Momelotinib] (10000 nM) | 41.4% |
| CC(=O)Nc1ccc(C(=O)Nc2ccccc2N)cc1 [Tacedinaline] (1000 nM) | 92.1% |
| O=C(O)c1ccc(-c2c[nH]c3ncc(-c4ccccc4)cc23)cc1C1CCCC1 (10000 nM) | 89% |
| COc1cc2ncnc(Nc3ccc(F)c(Cl)c3)c2cc1NC(=O)/C=C/CN1CCCCC1 [Dacomitinib] (1000 nM) | 90.7% |

test system: HCC1937; assay: as above; settings: incubation time: 72 h
Protocol: as §1

| SMILES | normalised response |
| --- | --- |
| CS(=O)(=O)c1ccc(C2=C(c3ccccc3)C(=O)OC2)cc1 [Rofecoxib] (10000 nM) | 106% |
| CCC(C)(C)C(=O)O[C@H]1C[C@@H](C)C=C2C=C[C@H](C)[C@H](CC[C@@H]3C[C@@H](O)CC(=O)O3)[C@H]21 [Simvastatin] (10000 nM) | 92.6% |
| CC(C)Cn1cnc2c(N)nc3ccccc3c21 [Imiquimod] (2500 nM) | 99.6% |
| N#CCNC(=O)c1ccc(-c2ccnc(Nc3ccc(N4CCOCC4)cc3)n2)cc1 [Momelotinib] (10000 nM) | 84.5% |
| CC(=O)Nc1ccc(C(=O)Nc2ccccc2N)cc1 [Tacedinaline] (1000 nM) | 97.2% |
| O=C(O)c1ccc(-c2c[nH]c3ncc(-c4ccccc4)cc23)cc1C1CCCC1 (10000 nM) | 105% |
| COc1cc2ncnc(Nc3ccc(F)c(Cl)c3)c2cc1NC(=O)/C=C/CN1CCCCC1 [Dacomitinib] (1000 nM) | 84.3% |

test system: SK-BR-3; assay: as above; settings: incubation time: 72 h
Protocol: as §1

| SMILES | normalised response |
| --- | --- |
| CS(=O)(=O)c1ccc(C2=C(c3ccccc3)C(=O)OC2)cc1 [Rofecoxib] (10000 nM) | 106% |
| CCC(C)(C)C(=O)O[C@H]1C[C@@H](C)C=C2C=C[C@H](C)[C@H](CC[C@@H]3C[C@@H](O)CC(=O)O3)[C@H]21 [Simvastatin] (10000 nM) | 98.9% |
| CC(C)Cn1cnc2c(N)nc3ccccc3c21 [Imiquimod] (2500 nM) | 106% |
| N#CCNC(=O)c1ccc(-c2ccnc(Nc3ccc(N4CCOCC4)cc3)n2)cc1 [Momelotinib] (10000 nM) | 55.1% |
| CC(=O)Nc1ccc(C(=O)Nc2ccccc2N)cc1 [Tacedinaline] (1000 nM) | 98.9% |
| O=C(O)c1ccc(-c2c[nH]c3ncc(-c4ccccc4)cc23)cc1C1CCCC1 (10000 nM) | 58.7% |
| COc1cc2ncnc(Nc3ccc(F)c(Cl)c3)c2cc1NC(=O)/C=C/CN1CCCCC1 [Dacomitinib] (1000 nM) | 21.1% |

test system: CAL-51; assay: as above; settings: incubation time: 72 h
Protocol: as §1

| SMILES | normalised response |
| --- | --- |
| CS(=O)(=O)c1ccc(C2=C(c3ccccc3)C(=O)OC2)cc1 [Rofecoxib] (10000 nM) | 71.8% |
| CCC(C)(C)C(=O)O[C@H]1C[C@@H](C)C=C2C=C[C@H](C)[C@H](CC[C@@H]3C[C@@H](O)CC(=O)O3)[C@H]21 [Simvastatin] (10000 nM) | 78.4% |
| CC(C)Cn1cnc2c(N)nc3ccccc3c21 [Imiquimod] (2500 nM) | 92.8% |
| N#CCNC(=O)c1ccc(-c2ccnc(Nc3ccc(N4CCOCC4)cc3)n2)cc1 [Momelotinib] (10000 nM) | 58% |
| CC(=O)Nc1ccc(C(=O)Nc2ccccc2N)cc1 [Tacedinaline] (1000 nM) | 113% |
| O=C(O)c1ccc(-c2c[nH]c3ncc(-c4ccccc4)cc23)cc1C1CCCC1 (10000 nM) | 92.7% |
| COc1cc2ncnc(Nc3ccc(F)c(Cl)c3)c2cc1NC(=O)/C=C/CN1CCCCC1 [Dacomitinib] (1000 nM) | 116% |

test system: BT-549; assay: as above; settings: incubation time: 72 h
Protocol: as §1

| SMILES | normalised response |
| --- | --- |
| CS(=O)(=O)c1ccc(C2=C(c3ccccc3)C(=O)OC2)cc1 [Rofecoxib] (10000 nM) | 103% |
| CCC(C)(C)C(=O)O[C@H]1C[C@@H](C)C=C2C=C[C@H](C)[C@H](CC[C@@H]3C[C@@H](O)CC(=O)O3)[C@H]21 [Simvastatin] (10000 nM) | 87.7% |
| CC(C)Cn1cnc2c(N)nc3ccccc3c21 [Imiquimod] (2500 nM) | 98% |
| N#CCNC(=O)c1ccc(-c2ccnc(Nc3ccc(N4CCOCC4)cc3)n2)cc1 [Momelotinib] (10000 nM) | 23.5% |
| CC(=O)Nc1ccc(C(=O)Nc2ccccc2N)cc1 [Tacedinaline] (1000 nM) | 107% |
| O=C(O)c1ccc(-c2c[nH]c3ncc(-c4ccccc4)cc23)cc1C1CCCC1 (10000 nM) | 74.5% |
| COc1cc2ncnc(Nc3ccc(F)c(Cl)c3)c2cc1NC(=O)/C=C/CN1CCCCC1 [Dacomitinib] (1000 nM) | 80.9% |

test system: HCC1143; assay: as above; settings: incubation time: 72 h
Protocol: as §1

| SMILES | normalised response |
| --- | --- |
| CS(=O)(=O)c1ccc(C2=C(c3ccccc3)C(=O)OC2)cc1 [Rofecoxib] (10000 nM) | 105% |
| CCC(C)(C)C(=O)O[C@H]1C[C@@H](C)C=C2C=C[C@H](C)[C@H](CC[C@@H]3C[C@@H](O)CC(=O)O3)[C@H]21 [Simvastatin] (10000 nM) | 95.9% |
| CC(C)Cn1cnc2c(N)nc3ccccc3c21 [Imiquimod] (2500 nM) | 94.5% |
| N#CCNC(=O)c1ccc(-c2ccnc(Nc3ccc(N4CCOCC4)cc3)n2)cc1 [Momelotinib] (10000 nM) | 66.6% |
| CC(=O)Nc1ccc(C(=O)Nc2ccccc2N)cc1 [Tacedinaline] (1000 nM) | 100% |
| O=C(O)c1ccc(-c2c[nH]c3ncc(-c4ccccc4)cc23)cc1C1CCCC1 (10000 nM) | 97.8% |
| COc1cc2ncnc(Nc3ccc(F)c(Cl)c3)c2cc1NC(=O)/C=C/CN1CCCCC1 [Dacomitinib] (1000 nM) | 94% |

test system: CAL-148; assay: as above; settings: incubation time: 72 h
Protocol: as §1

| SMILES | normalised response |
| --- | --- |
| CS(=O)(=O)c1ccc(C2=C(c3ccccc3)C(=O)OC2)cc1 [Rofecoxib] (10000 nM) | 119% |
| CCC(C)(C)C(=O)O[C@H]1C[C@@H](C)C=C2C=C[C@H](C)[C@H](CC[C@@H]3C[C@@H](O)CC(=O)O3)[C@H]21 [Simvastatin] (10000 nM) | 102% |
| CC(C)Cn1cnc2c(N)nc3ccccc3c21 [Imiquimod] (2500 nM) | 106% |
| N#CCNC(=O)c1ccc(-c2ccnc(Nc3ccc(N4CCOCC4)cc3)n2)cc1 [Momelotinib] (10000 nM) | 97.3% |
| CC(=O)Nc1ccc(C(=O)Nc2ccccc2N)cc1 [Tacedinaline] (1000 nM) | 95.2% |
| O=C(O)c1ccc(-c2c[nH]c3ncc(-c4ccccc4)cc23)cc1C1CCCC1 (10000 nM) | 94.4% |
| COc1cc2ncnc(Nc3ccc(F)c(Cl)c3)c2cc1NC(=O)/C=C/CN1CCCCC1 [Dacomitinib] (1000 nM) | 83.9% |

test system: CAL-120; assay: as above; settings: incubation time: 72 h
Protocol: as §1

| SMILES | normalised response |
| --- | --- |
| CS(=O)(=O)c1ccc(C2=C(c3ccccc3)C(=O)OC2)cc1 [Rofecoxib] (10000 nM) | 102% |
| CCC(C)(C)C(=O)O[C@H]1C[C@@H](C)C=C2C=C[C@H](C)[C@H](CC[C@@H]3C[C@@H](O)CC(=O)O3)[C@H]21 [Simvastatin] (10000 nM) | 91.8% |
| CC(C)Cn1cnc2c(N)nc3ccccc3c21 [Imiquimod] (2500 nM) | 95.8% |
| N#CCNC(=O)c1ccc(-c2ccnc(Nc3ccc(N4CCOCC4)cc3)n2)cc1 [Momelotinib] (10000 nM) | 50.2% |
| CC(=O)Nc1ccc(C(=O)Nc2ccccc2N)cc1 [Tacedinaline] (1000 nM) | 105% |
| O=C(O)c1ccc(-c2c[nH]c3ncc(-c4ccccc4)cc23)cc1C1CCCC1 (10000 nM) | 94.5% |
| COc1cc2ncnc(Nc3ccc(F)c(Cl)c3)c2cc1NC(=O)/C=C/CN1CCCCC1 [Dacomitinib] (1000 nM) | 95.6% |
